Data as given in article PMC12752606, “METTL10‐Mediated PIAS3 Methylation Links Purine Metabolism to Gastric Cancer Progression” (Advanced Science, 2025).

Key:
[1] = tested on: gastric tumors of Cldn18-AT mice; assay: Cldn18-AT advanced gastric cancer mouse model; type: in vivo; conditions: 40 mg/kg/day i.p., 28 days
Experimental: For the subcutaneous tumor model, 5 × 10⁶ MKN45 cells suspended in 100 µL of sterile PBS were injected subcutaneously into the flanks of BALB/c nude mice. When tumor volumes reached approximately 50 mm^3, mice were randomized into three groups (Vehicle control, LZQ‐02‐023‐01 at 20 mg/kg or 40 mg/kg, n = 10 per group). All treatments were administered via intraperitoneal injection once daily for 14 consecutive days. Tumor volumes were measured every 2 days using calipers and calculated using the formula: volume = [length × (width[2])]/2. Mice were sacrificed on day 24 for endpoint analyses. For genetically engineered mouse models (GEMMs), 25‐week‐old K19‐C2mE mice were randomized into Vehicle control (n = 8) and LZQ‐02‐023‐01 treatment (40 mg/kg, n = 8) groups. Both groups received daily intraperitoneal injections for 28 consecutive days. Similarly, 8‐week‐old Cldn18‐AT mice were induced with tamoxifen (100 mg/kg, T5648, Sigma) and, 2 weeks post‐induction, randomized into Vehicle (n = 6) and LZQ‐02‐023‐01 (40 mg/kg, n = 6) treatment groups. Treatments were administered daily via intraperitoneal injection for 28 days.
Paraffin sections were initially placed in an oven at 65 °C for 30 min to melt the paraffin. The slides were then immersed in two consecutive xylene baths for 10 min each to dewax the tissue, followed by hydration through a series of graded ethanol solutions. […]

ICR mice = assay: Acute toxicity at 125 mg/kg, 7-day observation and histopathology; type: in vivo
Experimental: For the acute toxic study, 8‐week‐old ICR mice (n = 6 per group) were administered a single intraperitoneal injection of LZQ‐02‐023‐01 at escalating doses. A vehicle‐treated group served as control. Survival was monitored continuously for 24 h postadministration. Additionally, another cohort of ICR mice (n = 5 per group) received a single intraperitoneal dose of LZQ‐02‐023‐01 at 125 mg/kg and were subsequently monitored daily for 7 days for clinical signs of toxicity, behavioral changes, body weight fluctuations, and mortality. At the conclusion of the observation period, animals were euthanized and subjected to a comprehensive gross necropsy. Major organs, including the liver, kidney, heart, lung, and spleen, were harvested for histopathological examination. For the chronic toxic study, 8‐week‐old ICR mice (n = 5 per group) received daily intraperitoneal injections of LZQ‐02‐023‐01 at a therapeutic dose of 40 mg/kg for 14 consecutive days. A vehicle‐treated group was included as a control. Throughout the treatment period, animals were monitored daily for clinical signs of toxicity and weighed every 2 days. At study termination, blood samples were collected for hematological and biochemical analyses. […]

[2] = biological target: other tested methyltransferases; assay: Off-target methyltransferase profiling, panel as a whole; type: biochemical; conditions: all panel enzymes other than METTL10
Experimental: To evaluate the off‐target effects of LZQ‐02‐023‐01 on methyltransferase activity, a panel of enzymes was assessed using the MTase‐Glo Methyltransferase Assay (Promega), following the manufacturer's instructions. The assay was performed by ICE Bioscience Inc. Briefly, LZQ‐02‐023‐01 was serially diluted 4‐fold in DMSO to generate a 10‐point concentration gradient, and the resulting solutions were dispensed into 384‐well white assay plates using an Echo acoustic liquid handler (Labcyte). Plates were centrifuged at 1000 rpm for 1 min to ensure even compound distribution. Following a 10‐min preincubation at 25 °C, 2 µL of a substrate solution containing S‐adenosylmethionine (SAM) and the specific methyltransferase substrate (Table S7, Supporting Information) was added to each well. After a brief centrifugation, plates were incubated at 25 °C for 180 min to allow the enzymatic methylation reaction to proceed. Subsequently, 1 µL of MTase‐Glo reagent was added, followed by centrifugation and incubation at 25 °C for 45 min. […]
Luminescence signals were directly proportional to methyltransferase activity, were recorded using a microplate reader (BMG LABTECH). Percent inhibition was calculated by normalizing luminescence intensities of compound‐treated wells to DMSO‐treated controls, and IC50 values were calculated using GraphPad Prism 8 software.

MKN45 and AGS cells = assay: Cell proliferation, CCK-8 assay; type: cell-based; conditions: 10 and 20 µM
Experimental: Cell proliferation was assessed using Cell Counting Kit‐8 (CCK‐8; K1018, APExBIO). Briefly, 1000 cells per well were seeded into 96‐well plates, and proliferation was measured at 450 nm on days 0, 1, 3, 5, and 7 using the CCK‐8 assay using a multifunctional microplate reader.

## Cc1ccc(Nc2ncc3c(n2)N(C)C(=O)N(c2cccc(N)c2)C3)cn1 [LZQ-02-023-01, Three‐(3‐aminophenyl)‐1‐methyl‐7‐((6‐methylpyridin‐3‐yl)amino)‐3,4‐dihydropyrimido [4,5‐d] pyrimidin‐2 (1H)‐one]
[1]
  Pathologic grade of lesions and proliferation (H&E, Ki-67): lower pathologic grade lesions and proliferation
  Tumor burden and progression: significantly reduced tumor burden and progression
ICR mice; 7 days
  Signs of overt toxicity: did not observe any signs of overt toxicity
ICR mice; end of 7-day period
  Histopathological analysis of major organs: no apparent tissue damage
[2]
  IC50: > 3000 nM
MKN45 and AGS cells
  GC cell proliferation (CCK-8): significantly inhibited
